# Laboratory results reported in patent US20230083012A1, “DIHYDROPYRIMIDINE DERIVATIVES AND USES THEREOF IN THE TREATMENT OF HBV INFECTION OR OF HBV-INDUCED DISEASES” (priority 2019, published 2023).
# Like-named read-outs stand apart in the source and are kept apart here.
# Key:
# Assay type in all cases: cell-based
# HBV = assay: Anti-HBV activity in HepG2.2.15 cells (HBV DNA in culture medium by qPCR); settings: HepG2.2.15 cells, 6 days treatment, HBV DNA in culture medium quantified by real-time PCR, read-out: EC50
# How it was run: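 HepG2.2.15 cells in 2% FBS medium at 37 °C were treated with compounds for 6 days, with medium and compound refreshed at day 3; 1:3 dilutions, 8 concentrations in triplicate, top 10 or 1 uM. HBV DNA in culture medium quantified by qPCR to derive EC50; CC50 from parallel plates (top 100 uM).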
# HepG2.2.15 cells = assay: Cytotoxicity determination in HepG2.2.15 cells (CCK-8 cell viability); settings: 6 days treatment, CCK-8 assay, highest concentration 100 uM
# How it was run: (§1)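 HepG2.2.15 cells seeded at 5,000 cells/well in 2% FBS medium, exposed 6 days to compounds (8-point 1:3 dilutions from 100 uM, triplicate), refreshed at day 3. Viability read by CCK-8 after 2.5 h at 37° C, absorbance 450 nm with 630 nm reference; CC50 calculated.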
# [1] = as above; settings: human, 6 days treatment, CCK-8 assay, highest concentration 100 uM
# How it was run: as §1
# [2] = Hepatitis B virus, HepG2.2.15, 144 h
smiles,measurement,setting,value
"CCOC(=O)C1=C(CN2CC(F)(F)[C@H]3[C@@H]2CN(C(C)=O)N3CCC(C)(C)C(=O)O)NC(c2nccs2)=N[C@H]1c1cccc(F)c1C [Compound 70B, 4-((cis)-2-Acetyl-4-(((S)-5-(ethoxycarbonyl)-6-(3-fluoro-2-methylphenyl)-2-(thiazol-2-yl)-3,6-dihydropyrimidin-4-yl)methyl)-6,6-difluorohexahydropyrrolo[3,2-c]pyrazol-1(2H)-yl)-2,2-dimethylbutanoic acid]",EC50,HBV,0.016 µM
same,CC50,HepG2.2.15 cells,> 50 µM
"COC(=O)C1=C(CN2CC(F)(F)[C@H]3[C@@H]2CCN3C[C@@H](C)C(=O)O)NC(c2nccs2)=N[C@H]1c1cccc(F)c1C (single isomer, unassigned) [Compound 131B, 3-((cis)-6,6-Difluoro-4-(((S*)-6-(3-fluoro-2-methylphenyl)-5-(methoxycarbonyl)-2-(thiazol-2-yl)-3,6-dihydropyrimidin-4-yl)methyl)hexahydropyrrolo[3,2-b]pyrrol-1(2H)-yl)-2-methylpropanoic acid]",EC50,HBV,0.0297 µM
same,CC50,HepG2.2.15 cells,65.6 µM
"CCOC(=O)C1=C(CN2CC(F)(F)[C@H]3[C@@H]2CCN3CCOC(C)(C)C(=O)O)NC(c2nccs2)=N[C@H]1c1cccc(F)c1C (single isomer, unassigned) [Compound 111]",EC50,HBV; [2],0.0078 µM
same,CC50 at 6 days,[1],33.4 µM
"COC(=O)C1=C(CN2CC(F)(F)[C@H]3[C@@H]2CCN3C[C@@H](C)C(=O)O)NC(c2nccs2)=N[C@H]1c1ccc(F)cc1Cl (single isomer, unassigned) [Compound 133A, 3-((cis)-4-((6-(2-Chloro-4-fluorophenyl)-5-(methoxycarbonyl)-2-(thiazol-2-yl)-3,6-dihydropyrimidin-4-yl)methyl)-6,6-difluorohexahydropyrrolo[3,2-b]pyrrol-1(2H)-yl)-2-methylpropanoic acid]",EC50,HBV; [2],< 0.0005 µM
same,CC50 at 6 days,[1],41.7 µM
"COC(=O)C1=C(CN2CC(F)(F)[C@@H]3CN(CC(C)(C)C(=O)O)C[C@@H]32)NC(c2nccs2)=N[C@H]1c1ccc(F)c(F)c1Cl (single isomer, unassigned) [Compound 21B, 3-((cis)-1-((6-(2-chloro-3,4-difluorophenyl)-5-(methoxycarbonyl)-2-(thiazol-2-yl)-3,6-dihydropyrimidin-4-yl)methyl)-3,3-difluorohexahydropyrrolo[3,4-b]pyrrol-5(1H)-yl)-2,2-dimethylpropanoic acid]",EC50,HBV; [2],0.0227 µM
same,CC50 at 6 days,[1],97.3 µM
"CCOC(=O)C1=C(CN2CC(F)(F)[C@H]3[C@@H]2CC(=O)N3[C@H]2CC[C@@H](C(=O)O)CC2)NC(c2nccs2)=N[C@H]1c1cccc(F)c1C (single isomer, unassigned) [Compound 158A]",EC50,HBV; [2],0.0531 µM
same,CC50 at 6 days,[1],27.9 µM
"CCOC(=O)C1=C(CN2CC(F)(F)[C@@H]3CN([C@H]4C[C@@H](C(=O)O)C4)C(=O)[C@@H]32)NC(c2nccs2)=N[C@H]1c1cccc(F)c1C (single isomer, unassigned) [Compound 192]",EC50,HBV; [2],0.0166 µM
same,CC50 at 6 days,[1],52.9 µM
"CCOC(=O)C1=C(CN2CC(F)(F)[C@H]3[C@@H]2CCN3C[C@H](C)C(=O)O)NC(c2nccs2)=N[C@H]1c1cccc(F)c1Cl (single isomer, unassigned) [Compound 149B]",EC50,HBV; [2],0.0019 µM
same,CC50 at 6 days,[1],34.1 µM
